# Test system: primary HSCs
smiles,measurement,setting,value
"Cc1sc2c(c1C)C(c1ccc(Cl)cc1)=N[C@@H](CC(=O)OC(C)(C)C)c1nnc(C)n1-2 [JQ1, (S)-tert-butyl 2-(4-(4-chlorophenyl)-2,3,9-trimethyl-6H-thieno[3,2-f][1,2,4]triazolo[4,3-a][1,4]diazepin-6-yl)acetate]",Ccnb2 value_2,"mRNA-Seq, sample Day_6_JQ1",22.7753
same,Ccnf value_2,"mRNA-Seq, sample Day_6_JQ1",11.7934
same,Cdc45 value_2,"mRNA-Seq, sample Day_6_JQ1",7.419
same,Cdca3 value_2,"mRNA-Seq, sample Day_6_JQ1",31.4087
same,Cdk1 value_2,"mRNA-Seq, sample Day_6_JQ1",28.779
same,Cdkn2c value_2,"mRNA-Seq, sample Day_6_JQ1",16.1063
same,Cend1 value_2,"mRNA-Seq, sample Day_6_JQ1",7.615
same,Cenpe value_2,"mRNA-Seq, sample Day_6_JQ1",9.129
same,Cenph value_2,"mRNA-Seq, sample Day_6_JQ1",8.899
same,Chaf1a value_2,"mRNA-Seq, sample Day_6_JQ1",16.8473
same,Ckap2l value_2,"mRNA-Seq, sample Day_6_JQ1",18.5683
same,Ckb value_2,"mRNA-Seq, sample Day_6_JQ1",310.111
same,Cks1b value_2,"mRNA-Seq, sample Day_6_JQ1",113.98
same,Colec11 value_2,"mRNA-Seq, sample Day_6_JQ1",68.8593
same,Cpt1c value_2,"mRNA-Seq, sample Day_6_JQ1",30.5415
same,Ctnnbip1 value_2,"mRNA-Seq, sample Day_6_JQ1",14.2922
same,Cyb5r3 value_2,"mRNA-Seq, sample Day_6_JQ1",256.005
same,Cyp1b1 value_2,"mRNA-Seq, sample Day_6_JQ1",100.635
same,D2Ertd750e value_2,"mRNA-Seq, sample Day_6_JQ1",10.3027
same,Dact3 value_2,"mRNA-Seq, sample Day_6_JQ1",26.3749
same,Dag1 value_2,"mRNA-Seq, sample Day_6_JQ1",162.916
same,Dcbld2 value_2,"mRNA-Seq, sample Day_6_JQ1",73.5335
same,Dcxr value_2,"mRNA-Seq, sample Day_6_JQ1",36.0469
same,Ddr2 value_2,"mRNA-Seq, sample Day_6_JQ1",63.2059
same,Diap3 value_2,"mRNA-Seq, sample Day_6_JQ1",10.7413
same,Dlgap5 value_2,"mRNA-Seq, sample Day_6_JQ1",10.9428
same,Dzip3 value_2,"mRNA-Seq, sample Day_6_JQ1",8.399
same,E2f1 value_2,"mRNA-Seq, sample Day_6_JQ1",21.0746
same,Elovl5 value_2,"mRNA-Seq, sample Day_6_JQ1",65.5058
same,Eno2 value_2,"mRNA-Seq, sample Day_6_JQ1",9.68
same,Ephb3 value_2,"mRNA-Seq, sample Day_6_JQ1",16.6667
same,Ephx1 value_2,"mRNA-Seq, sample Day_6_JQ1",132.832
same,Evc value_2,"mRNA-Seq, sample Day_6_JQ1",10.4125
same,Ext2 value_2,"mRNA-Seq, sample Day_6_JQ1",87.8458
same,Fam171b value_2,"mRNA-Seq, sample Day_6_JQ1",12.8947
same,Fbxo5 value_2,"mRNA-Seq, sample Day_6_JQ1",11.9069
same,Fignl1 value_2,"mRNA-Seq, sample Day_6_JQ1",12.5326
same,Foxm1 value_2,"mRNA-Seq, sample Day_6_JQ1",15.7609
same,Fscn1 value_2,"mRNA-Seq, sample Day_6_JQ1",385.037
same,Gas1 value_2,"mRNA-Seq, sample Day_6_JQ1",80.3077
same,Gmnn value_2,"mRNA-Seq, sample Day_6_JQ1",19.8433
same,Gpm6b value_2,"mRNA-Seq, sample Day_6_JQ1",19.7607
same,Gpx1 value_2,"mRNA-Seq, sample Day_6_JQ1",332.885
same,Gstt3 value_2,"mRNA-Seq, sample Day_6_JQ1",14.4369
same,Gyg value_2,"mRNA-Seq, sample Day_6_JQ1",82.2854
same,Hadh value_2,"mRNA-Seq, sample Day_6_JQ1",56.1898
same,Hand2 value_2,"mRNA-Seq, sample Day_6_JQ1",110.598
same,Hmmr value_2,"mRNA-Seq, sample Day_6_JQ1",17.0843
same,Id3 value_2,"mRNA-Seq, sample Day_6_JQ1",1063.75
same,Ildr2 value_2,"mRNA-Seq, sample Day_6_JQ1",11.4416
same,Kif2c value_2,"mRNA-Seq, sample Day_6_JQ1",11.8118
same,Kif4 value_2,"mRNA-Seq, sample Day_6_JQ1",7.332
same,Kif11 value_2,"mRNA-Seq, sample Day_6_JQ1",10.8132
same,Kif20b value_2,"mRNA-Seq, sample Day_6_JQ1",7.299
same,Kif22 value_2,"mRNA-Seq, sample Day_6_JQ1",14.9542
same,Lamb2 value_2,"mRNA-Seq, sample Day_6_JQ1",41.1365
same,Lhfp value_2,"mRNA-Seq, sample Day_6_JQ1",371.966
same,Lphn1 value_2,"mRNA-Seq, sample Day_6_JQ1",20.1469
same,Melk value_2,"mRNA-Seq, sample Day_6_JQ1",7.467
same,Mfge8 value_2,"mRNA-Seq, sample Day_6_JQ1",379.144
same,Mki67 value_2,"mRNA-Seq, sample Day_6_JQ1",27.8603
same,Mmp11 value_2,"mRNA-Seq, sample Day_6_JQ1",36.1215
same,Mras value_2,"mRNA-Seq, sample Day_6_JQ1",15.4481
same,Mrc2 value_2,"mRNA-Seq, sample Day_6_JQ1",111.626
same,Msx1 value_2,"mRNA-Seq, sample Day_6_JQ1",5.962
same,Ndc80 value_2,"mRNA-Seq, sample Day_6_JQ1",8.604
same,Nkd1 value_2,"mRNA-Seq, sample Day_6_JQ1",16.9471
same,Nuf2 value_2,"mRNA-Seq, sample Day_6_JQ1",9.227
same,Oat value_2,"mRNA-Seq, sample Day_6_JQ1",213.454
same,Osbpl5 value_2,"mRNA-Seq, sample Day_6_JQ1",41.3593
same,Osr1 value_2,"mRNA-Seq, sample Day_6_JQ1",16.6329
same,Pbx1 value_2,"mRNA-Seq, sample Day_6_JQ1",48.4716
same,Pld3 value_2,"mRNA-Seq, sample Day_6_JQ1",190.597
same,Plxdc2 value_2,"mRNA-Seq, sample Day_6_JQ1",26.1768
same,Prc1 value_2,"mRNA-Seq, sample Day_6_JQ1",30.6759
same,Ptgr1 value_2,"mRNA-Seq, sample Day_6_JQ1",25.0296
same,Pxmp4 value_2,"mRNA-Seq, sample Day_6_JQ1",17.7124
same,Pygb value_2,"mRNA-Seq, sample Day_6_JQ1",42.1403
same,Racgap1 value_2,"mRNA-Seq, sample Day_6_JQ1",22.85
same,Rarb value_2,"mRNA-Seq, sample Day_6_JQ1",70.6683
same,S100a6 value_2,"mRNA-Seq, sample Day_6_JQ1",1608.42
same,Scrn1 value_2,"mRNA-Seq, sample Day_6_JQ1",7.911
same,Sipa1l1 value_2,"mRNA-Seq, sample Day_6_JQ1",28.6555
same,Slit2 value_2,"mRNA-Seq, sample Day_6_JQ1",14.8622
same,Smc2 value_2,"mRNA-Seq, sample Day_6_JQ1",19.557
same,Smc4 value_2,"mRNA-Seq, sample Day_6_JQ1",33.8803
same,Snap47 value_2,"mRNA-Seq, sample Day_6_JQ1",103.523
same,Spc24 value_2,"mRNA-Seq, sample Day_6_JQ1",8.494
same,Spry1 value_2,"mRNA-Seq, sample Day_6_JQ1",44.5222
same,St5 value_2,"mRNA-Seq, sample Day_6_JQ1",35.2195
same,Tacc3 value_2,"mRNA-Seq, sample Day_6_JQ1",18.1794
same,Tfdp2 value_2,"mRNA-Seq, sample Day_6_JQ1",10.5854
same,Tinagl1 value_2,"mRNA-Seq, sample Day_6_JQ1",326.013
same,Tmem53 value_2,"mRNA-Seq, sample Day_6_JQ1",17.4035
same,Tmsb10 value_2,"mRNA-Seq, sample Day_6_JQ1",1117.74
same,Trim59 value_2,"mRNA-Seq, sample Day_6_JQ1",27.2401
same,Tro value_2,"mRNA-Seq, sample Day_6_JQ1",7.307
same,Trp53inp2 value_2,"mRNA-Seq, sample Day_6_JQ1",99.8045
same,Twist1 value_2,"mRNA-Seq, sample Day_6_JQ1",19.9784
same,Uhrf1 value_2,"mRNA-Seq, sample Day_6_JQ1",16.7743
same,Vgll3 value_2,"mRNA-Seq, sample Day_6_JQ1",95.3643
same,Wdr35 value_2,"mRNA-Seq, sample Day_6_JQ1",9.874
same,Wt1 value_2,"mRNA-Seq, sample Day_6_JQ1",29.0084
same,Zbtb7c value_2,"mRNA-Seq, sample Day_6_JQ1",7.895
same,number of genes upregulated during HSC activation (more than 900) that are suppressed,"primary HSCs, days 3 and 6 vs day 1, JQ1 500 nM",more than 400 genes
same,"induction of key marker genes Col1a1, Acta2, Col1a2 and Des during HSC activation","primary HSCs, JQ1 500 nM, mRNA-Seq and qRT-PCR",drastically abolished

# — patent US20180325914A1, “INCREASING STORAGE OF VITAMIN A, VITAMIN D AND/OR LIPIDS” (Salk Institute for Biological Studies, priority 2014, published 2018)
